Laboratory results taken from the supplement of paper PMC6315032.

What was measured:
Experiment in all cases: apparent dissociation constant (pKDapp, Kinobeads competition, Cheng-Prusoff corrected) (-log10 M); higher = tighter binding
Conditions in all cases: affinity matrix / lysate: Kinobeads, mixed HEK293/K-562/placenta lysate
[1] = target: ROCK2 (UniProt O75116)
[2] = target: BRD4 (UniProt O60885)
[3] = target: CDK9 (UniProt P50750)
[4] = target: CSNK1G3 (UniProt Q9Y6M4)
[5] = target: DDR2 (UniProt Q16832)
[6] = target: DYRK1B (UniProt Q9Y463)
[7] = target: EIF2AK2 (UniProt P19525)
[8] = target: LCK (UniProt P06239)
[9] = target: MAP3K11 (UniProt Q16584)
[10] = target: MAP4K1 (UniProt Q92918)
[11] = target: PAK6 (UniProt Q9NQU5)
[12] = target: PRKACB (UniProt P22694)
[13] = target: SGK1 (UniProt O00141)
[14] = target: SIK1 (UniProt P57059)
[15] = target: TLK1 (UniProt Q9UKI8)
[16] = target: UHMK1 (UniProt Q8TAS1)
[17] = target: WNK1 (UniProt Q9H4A3)

Measured: apparent dissociation constant (-log10 M)

MAP4K1, sequence (Q92918 whole entry, looked up): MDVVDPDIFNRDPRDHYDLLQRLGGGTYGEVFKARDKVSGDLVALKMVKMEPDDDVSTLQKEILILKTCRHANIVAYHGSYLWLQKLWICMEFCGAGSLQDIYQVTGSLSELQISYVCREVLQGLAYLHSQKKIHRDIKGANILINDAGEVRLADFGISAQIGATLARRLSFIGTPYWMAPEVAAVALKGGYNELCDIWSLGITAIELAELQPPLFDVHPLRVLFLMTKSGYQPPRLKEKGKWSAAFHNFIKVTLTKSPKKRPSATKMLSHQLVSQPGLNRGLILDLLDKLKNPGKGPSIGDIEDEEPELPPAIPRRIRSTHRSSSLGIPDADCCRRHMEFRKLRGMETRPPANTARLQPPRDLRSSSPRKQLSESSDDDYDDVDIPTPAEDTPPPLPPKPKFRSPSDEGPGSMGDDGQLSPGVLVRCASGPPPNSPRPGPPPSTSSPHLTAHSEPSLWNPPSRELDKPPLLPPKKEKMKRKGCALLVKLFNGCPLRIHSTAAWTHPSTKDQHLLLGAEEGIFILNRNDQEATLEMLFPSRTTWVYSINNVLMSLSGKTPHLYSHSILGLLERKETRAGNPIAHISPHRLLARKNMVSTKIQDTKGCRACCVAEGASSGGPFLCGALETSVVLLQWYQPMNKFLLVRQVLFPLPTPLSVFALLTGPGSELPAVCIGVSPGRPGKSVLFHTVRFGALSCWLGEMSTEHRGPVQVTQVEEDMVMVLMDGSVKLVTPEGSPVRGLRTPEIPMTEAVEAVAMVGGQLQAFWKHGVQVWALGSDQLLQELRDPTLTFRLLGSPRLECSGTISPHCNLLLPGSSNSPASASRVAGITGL
EIF2AK2, sequence (P19525 whole entry): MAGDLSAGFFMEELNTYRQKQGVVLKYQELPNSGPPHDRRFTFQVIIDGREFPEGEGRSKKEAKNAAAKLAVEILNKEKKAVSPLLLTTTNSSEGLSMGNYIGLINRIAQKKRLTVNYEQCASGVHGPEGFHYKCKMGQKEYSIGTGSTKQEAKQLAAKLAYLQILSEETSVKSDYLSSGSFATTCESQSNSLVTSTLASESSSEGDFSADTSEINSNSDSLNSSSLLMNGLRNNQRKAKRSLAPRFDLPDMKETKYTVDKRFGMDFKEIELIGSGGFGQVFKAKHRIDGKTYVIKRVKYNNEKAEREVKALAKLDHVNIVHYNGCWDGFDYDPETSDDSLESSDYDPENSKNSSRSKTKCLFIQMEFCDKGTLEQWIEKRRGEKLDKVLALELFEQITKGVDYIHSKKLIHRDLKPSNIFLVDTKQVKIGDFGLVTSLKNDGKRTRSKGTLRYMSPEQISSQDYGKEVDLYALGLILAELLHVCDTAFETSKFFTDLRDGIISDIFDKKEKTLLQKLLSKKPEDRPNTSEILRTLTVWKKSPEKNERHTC
MAP3K11, sequence (Q16584 whole entry, looked up): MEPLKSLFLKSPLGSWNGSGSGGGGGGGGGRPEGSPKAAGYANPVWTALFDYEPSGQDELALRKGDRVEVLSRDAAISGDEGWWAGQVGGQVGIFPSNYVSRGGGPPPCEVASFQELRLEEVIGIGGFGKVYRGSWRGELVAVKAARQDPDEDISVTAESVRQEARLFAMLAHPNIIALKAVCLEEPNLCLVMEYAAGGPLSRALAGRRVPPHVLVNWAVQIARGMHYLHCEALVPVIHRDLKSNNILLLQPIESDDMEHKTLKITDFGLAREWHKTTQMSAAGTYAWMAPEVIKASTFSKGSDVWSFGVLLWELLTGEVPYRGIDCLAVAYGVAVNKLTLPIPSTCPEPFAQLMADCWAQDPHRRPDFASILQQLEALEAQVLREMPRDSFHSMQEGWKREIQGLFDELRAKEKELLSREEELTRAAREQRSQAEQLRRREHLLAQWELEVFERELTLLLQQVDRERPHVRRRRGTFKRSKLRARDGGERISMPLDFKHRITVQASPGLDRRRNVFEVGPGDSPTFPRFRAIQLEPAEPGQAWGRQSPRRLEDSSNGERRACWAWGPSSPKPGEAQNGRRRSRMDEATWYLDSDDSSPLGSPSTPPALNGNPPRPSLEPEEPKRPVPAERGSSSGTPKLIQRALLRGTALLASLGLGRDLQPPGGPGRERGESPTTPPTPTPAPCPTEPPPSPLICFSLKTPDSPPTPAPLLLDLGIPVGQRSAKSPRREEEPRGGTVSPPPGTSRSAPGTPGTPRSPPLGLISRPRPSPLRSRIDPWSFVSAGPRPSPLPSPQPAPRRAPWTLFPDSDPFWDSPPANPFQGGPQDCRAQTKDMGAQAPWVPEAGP
SIK1, sequence (P57059 whole entry): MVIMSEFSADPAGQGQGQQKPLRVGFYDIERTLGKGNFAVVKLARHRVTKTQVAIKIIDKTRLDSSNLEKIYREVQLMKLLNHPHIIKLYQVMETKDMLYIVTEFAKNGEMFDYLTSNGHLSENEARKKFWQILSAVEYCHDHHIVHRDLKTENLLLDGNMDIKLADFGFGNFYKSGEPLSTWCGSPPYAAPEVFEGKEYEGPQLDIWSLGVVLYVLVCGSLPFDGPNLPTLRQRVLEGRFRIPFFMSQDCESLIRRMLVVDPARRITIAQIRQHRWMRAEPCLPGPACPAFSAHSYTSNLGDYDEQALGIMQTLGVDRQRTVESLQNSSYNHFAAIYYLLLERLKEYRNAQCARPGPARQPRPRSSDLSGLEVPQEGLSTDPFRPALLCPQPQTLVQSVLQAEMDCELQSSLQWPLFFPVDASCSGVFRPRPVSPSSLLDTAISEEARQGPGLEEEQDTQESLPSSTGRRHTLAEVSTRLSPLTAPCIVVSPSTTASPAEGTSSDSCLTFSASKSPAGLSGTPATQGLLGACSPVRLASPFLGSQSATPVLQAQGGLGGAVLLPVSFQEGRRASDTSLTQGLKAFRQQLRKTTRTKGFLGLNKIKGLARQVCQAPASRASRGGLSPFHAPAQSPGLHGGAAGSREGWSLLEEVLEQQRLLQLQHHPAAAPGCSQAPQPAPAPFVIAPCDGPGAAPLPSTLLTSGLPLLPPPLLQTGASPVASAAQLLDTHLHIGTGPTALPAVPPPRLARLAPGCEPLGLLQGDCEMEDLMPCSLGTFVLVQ
DYRK1B, sequence (Q9Y463 whole entry, looked up): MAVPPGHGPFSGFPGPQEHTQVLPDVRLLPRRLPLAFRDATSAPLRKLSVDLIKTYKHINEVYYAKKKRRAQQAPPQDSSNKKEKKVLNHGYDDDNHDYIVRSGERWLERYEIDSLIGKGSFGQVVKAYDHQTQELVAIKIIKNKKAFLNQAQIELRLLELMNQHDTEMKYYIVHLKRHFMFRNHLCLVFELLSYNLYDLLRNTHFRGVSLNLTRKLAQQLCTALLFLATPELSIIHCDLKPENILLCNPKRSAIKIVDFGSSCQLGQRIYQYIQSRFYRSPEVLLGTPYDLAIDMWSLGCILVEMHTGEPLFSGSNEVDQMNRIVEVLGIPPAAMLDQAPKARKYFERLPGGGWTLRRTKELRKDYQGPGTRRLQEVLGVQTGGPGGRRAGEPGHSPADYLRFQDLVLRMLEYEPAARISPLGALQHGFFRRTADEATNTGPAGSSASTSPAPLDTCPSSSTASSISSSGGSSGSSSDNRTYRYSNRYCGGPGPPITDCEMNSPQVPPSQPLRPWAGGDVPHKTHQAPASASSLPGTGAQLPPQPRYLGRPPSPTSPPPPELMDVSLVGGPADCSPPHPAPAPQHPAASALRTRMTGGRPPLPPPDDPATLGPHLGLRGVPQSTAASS
TLK1, sequence (Q9UKI8 whole entry): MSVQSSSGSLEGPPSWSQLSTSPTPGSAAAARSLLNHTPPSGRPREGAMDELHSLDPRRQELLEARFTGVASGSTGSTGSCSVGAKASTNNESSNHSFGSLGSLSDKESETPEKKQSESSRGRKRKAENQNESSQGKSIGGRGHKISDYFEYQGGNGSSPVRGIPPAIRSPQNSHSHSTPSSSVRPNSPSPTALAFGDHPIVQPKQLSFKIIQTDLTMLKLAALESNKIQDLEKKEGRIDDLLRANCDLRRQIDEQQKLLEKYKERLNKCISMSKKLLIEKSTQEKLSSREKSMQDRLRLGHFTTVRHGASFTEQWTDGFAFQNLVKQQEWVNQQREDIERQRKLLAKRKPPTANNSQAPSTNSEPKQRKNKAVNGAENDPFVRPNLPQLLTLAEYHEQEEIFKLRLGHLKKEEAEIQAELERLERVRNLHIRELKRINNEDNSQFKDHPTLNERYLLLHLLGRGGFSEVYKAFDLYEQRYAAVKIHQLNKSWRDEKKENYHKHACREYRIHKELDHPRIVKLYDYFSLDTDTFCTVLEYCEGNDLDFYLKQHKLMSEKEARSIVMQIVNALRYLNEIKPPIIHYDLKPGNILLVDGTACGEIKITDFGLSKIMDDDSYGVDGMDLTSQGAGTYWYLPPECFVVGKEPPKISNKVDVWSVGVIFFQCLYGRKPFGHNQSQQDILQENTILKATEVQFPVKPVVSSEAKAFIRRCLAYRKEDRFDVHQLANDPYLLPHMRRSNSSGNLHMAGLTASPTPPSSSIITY
CSNK1G3, sequence (Q9Y6M4 whole entry, looked up): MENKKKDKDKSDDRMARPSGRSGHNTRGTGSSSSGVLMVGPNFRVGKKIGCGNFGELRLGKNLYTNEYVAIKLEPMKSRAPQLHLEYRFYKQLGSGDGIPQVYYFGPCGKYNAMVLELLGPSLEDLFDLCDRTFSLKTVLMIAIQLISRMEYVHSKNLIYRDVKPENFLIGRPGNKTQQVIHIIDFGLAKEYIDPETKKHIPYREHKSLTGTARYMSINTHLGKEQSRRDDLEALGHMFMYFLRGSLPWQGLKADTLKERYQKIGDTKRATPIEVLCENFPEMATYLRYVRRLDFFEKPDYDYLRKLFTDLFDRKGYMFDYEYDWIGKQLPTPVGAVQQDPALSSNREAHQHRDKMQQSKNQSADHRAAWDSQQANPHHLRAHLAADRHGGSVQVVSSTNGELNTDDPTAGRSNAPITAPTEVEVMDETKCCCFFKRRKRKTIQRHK

COc1ccc(-c2ccc3c(N4CCOC[C@@H]4C)nc(N4CCOC[C@@H]4C)nc3n2)cc1CO [AZD8055]
< 6: [1]

CCNC(=O)Nc1ccc(-c2nc(N3CCOC[C@@H]3C)c3c(n2)C(C)(C)S(=O)(=O)C3)cc1 [CZ415]
not listed: [1]
< 6: all other assays above
